According to PubChem BioAssay AID248 (DTP/NCI, 2004):
“And” between values parts separate entries of the source, which are not always exact repeats. Equal entries are not always repeated. Toxic doses and inconclusive results are not listed. Cut-off read from the data, not from the text of the source: active = T/C of 150% or more; inactive = T/C below 125%.

Tested on: L1210 leukemia ip in BDF1 mice, survival T/C
Test: NCI In Vivo Anticancer Drug Screen. Data for tumor model L1210 Leukemia (intraperitoneal) in B6D2F1 (BDF1) mice
Settings: endpoint: mean survival time, higher = longer survival
Summary of the method: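 Transplanted-tumor mice were given test agent; controls received vehicle only. Survival readings from the two groups were divided (treated over control).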

[1] = dose: 100.0 mg/kg/injection, schedule: Q04DX003 (ip), vehicle: saline with Tween-80
[2] = dose: 200.0 mg/kg/injection, schedule: Q04DX003 (ip), vehicle: saline with Tween-80
[3] = dose: 400.0 mg/kg/injection, schedule: Q04DX003 (ip), vehicle: saline with Tween-80
[4] = dose: 100.0 mg/kg/injection, schedule: Q01DX001 (ip), vehicle: saline with Tween-80

Measured: T/C

O=C(O)C1CCC2CCCCC2[N-]1.O=C(O)C1CCC2CCCCC2[N-]1.[Cu+2] (stereo not given)
inactive: dose: 6.25 mg/kg/injection, schedule: Q01DX009 (ip), vehicle: saline 97 % of control | dose: 6.25 mg/kg/injection, schedule: Q04DX003 (ip), vehicle: saline 105 % of control | dose: 12.5 mg/kg/injection, schedule: Q01DX009 (ip), vehicle: saline 90 % of control | dose: 12.5 mg/kg/injection, schedule: Q04DX003 (ip), vehicle: saline 100 % of control | dose: 25.0 mg/kg/injection, schedule: Q01DX009 (ip), vehicle: saline 97 % of control | dose: 25.0 mg/kg/injection, schedule: Q04DX003 (ip), vehicle: saline 94 % of control

O=C(C=C(C(F)(F)F)C(F)(F)F)c1cccc(C(F)(F)F)c1
inactive: dose: 12.5 mg/kg/injection, schedule: Q01DX009 (ip), vehicle: saline with Tween-80 102 % of control | dose: 25.0 mg/kg/injection, schedule: Q01DX009 (ip), vehicle: saline with Tween-80 95 % of control | [1] 89 % of control

Cc1nnnn1-c1ccc([N+](=O)[O-])cc1
inactive: [1] 101 % of control | [2] 101 % of control | [3] 93 % of control

C=C1CC2(C)C(=O)CCCC2OC1=O (stereo not given)
inactive: dose: 25.0 mg/kg/injection, schedule: Q01DX001 (ip), vehicle: saline 91 % of control | dose: 50.0 mg/kg/injection, schedule: Q01DX001 (ip), vehicle: saline 100 % of control | [4] 102 % of control | dose: 100.0 mg/kg/injection, schedule: Q01DX001 (ip), vehicle: saline 106 % of control

C#CCOCC1CN(c2ccccc2)C(=O)O1 (stereo not given)
inactive: dose: 100.0 mg/kg/injection, schedule: Q01DX009 (ip), vehicle: Klucel (hydroxypropylcellulose) (HPC) 100 % of control | dose: 100.0 mg/kg/injection, schedule: Q04DX003 (ip), vehicle: Klucel (hydroxypropylcellulose) (HPC) 101 % of control | dose: 200.0 mg/kg/injection, schedule: Q01DX009 (ip), vehicle: Klucel (hydroxypropylcellulose) (HPC) 100 % of control | dose: 200.0 mg/kg/injection, schedule: Q04DX003 (ip), vehicle: Klucel (hydroxypropylcellulose) (HPC) 92 % of control | dose: 400.0 mg/kg/injection, schedule: Q01DX009 (ip), vehicle: Klucel (hydroxypropylcellulose) (HPC) 91 % of control | dose: 400.0 mg/kg/injection, schedule: Q04DX003 (ip), vehicle: Klucel (hydroxypropylcellulose) (HPC) 103 % of control

CC(C)(C)CC(C)(C)c1ccc(OCCOS(=O)(=O)c2cccc([N+](=O)[O-])c2)cc1
inactive: [1] 94 % of control | [2] 90 % of control

CC1CCC(C(C)C)/C(=N\O)C1 (stereo not given)
inactive: [4] 93 % of control | dose: 200.0 mg/kg/injection, schedule: Q01DX001 (ip), vehicle: saline with Tween-80 97 % of control | dose: 400.0 mg/kg/injection, schedule: Q01DX001 (ip), vehicle: saline with Tween-80 93 % of control

CC(=O)OC1C=CCC2C(=O)c3c(c(O)c4ccccc4c3O)C(=O)C12 (stereo not given)
inactive: dose: 100.0 mg/kg/injection, schedule: Q01DX009 (ip), vehicle: saline with Tween-80 95 % of control | [1] 95 % of control | dose: 200.0 mg/kg/injection, schedule: Q01DX009 (ip), vehicle: saline with Tween-80 105 % of control | [2] 95 % of control | dose: 400.0 mg/kg/injection, schedule: Q01DX009 (ip), vehicle: saline with Tween-80 100 % of control | [3] 90 % of control

COc1cc(-c2ccc(Nc3ccccc3C(=O)O)c(OC)c2)ccc1Nc1ccccc1C(=O)O
inactive: dose: 6.0 mg/kg/injection, schedule: Q01DX006 (iv), vehicle: carboxymethylcellulose (CMC) 111 % of control | dose: 12.0 mg/kg/injection, schedule: Q01DX006 (iv), vehicle: carboxymethylcellulose (CMC) 106 % of control | dose: 13.0 mg/kg/injection, schedule: Q01DX Z (ip), vehicle: saline 122 % of control | dose: 20.0 mg/kg/injection, schedule: Q01DX Z (ip), vehicle: saline 114 % of control | dose: 25.0 mg/kg/injection, schedule: Q01DX006 (iv), vehicle: carboxymethylcellulose (CMC) 107 % of control | dose: 25.0 mg/kg/injection, schedule: Q01DX Z (ip), vehicle: carboxymethylcellulose (CMC) 103 % of control | dose: 29.0 mg/kg/injection, schedule: Q01DX Z (ip), vehicle: saline 116 % of control | dose: 37.5 mg/kg/injection, schedule: Q01DX006 (iv), vehicle: carboxymethylcellulose (CMC) 108 % of control | dose: 44.0 mg/kg/injection, schedule: Q01DX Z (ip), vehicle: carboxymethylcellulose (CMC) 104 % of control and 112 % of control | dose: 44.0 mg/kg/injection, schedule: Q01DX Z (ip), vehicle: methylcellulose (MC) 100 % of control | dose: 44.0 mg/kg/injection, schedule: Q01DX Z (ip), vehicle: saline 117 % of control and 122 % of control | dose: 45.0 mg/kg/injection, schedule: Q01DX Z (ip), vehicle: carboxymethylcellulose (CMC) 104 % of control | dose: 50.0 mg/kg/injection, schedule: Q01DX006 (iv), vehicle: carboxymethylcellulose (CMC) 106 % of control | dose: 50.0 mg/kg/injection, schedule: Q01DX015 (ip), vehicle: saline 98 % of control | dose: 50.0 mg/kg/injection, schedule: Q01DX Z (ip), vehicle: carboxymethylcellulose (CMC) 97 % of control and 101 % of control | dose: 64.0 mg/kg/injection, schedule: Q01DX Z (ip), vehicle: carboxymethylcellulose (CMC) 102 % of control | dose: 66.0 mg/kg/injection, schedule: Q01DX Z (ip), vehicle: carboxymethylcellulose (CMC) 110 % of control | dose: 66.0 mg/kg/injection, schedule: Q01DX Z (ip), vehicle: methylcellulose (MC) 105 % of control | dose: 66.0 mg/kg/injection, schedule: Q01DX Z (ip), vehicle: saline 109 % of control and 114 % of control | dose: 98.0 mg/kg/injection, schedule: Q01DX Z (ip), vehicle: methylcellulose (MC) 98 % of control | dose: 98.0 mg/kg/injection, schedule: Q01DX Z (ip), vehicle: saline 97 % of control | dose: 99.0 mg/kg/injection, schedule: Q01DX Z (ip), vehicle: carboxymethylcellulose (CMC) 100 % of control | dose: 100.0 mg/kg/injection, schedule: Q01DX015 (ip), vehicle: saline 96 % of control | dose: 100.0 mg/kg/injection, schedule: Q01DX Z (ip), vehicle: saline 119 % of control | dose: 147.0 mg/kg/injection, schedule: Q01DX Z (ip), vehicle: methylcellulose (MC) 110 % of control | dose: 147.0 mg/kg/injection, schedule: Q01DX Z (ip), vehicle: saline 100 % of control | dose: 150.0 mg/kg/injection, schedule: Q01DX Z (ip), vehicle: carboxymethylcellulose (CMC) 95 % of control | dose: 200.0 mg/kg/injection, schedule: Q01DX015 (ip), vehicle: saline 101 % of control | dose: 200.0 mg/kg/injection, schedule: Q01DX Z (ip), vehicle: carboxymethylcellulose (CMC) 103 % of control and 106 % of control | dose: 200.0 mg/kg/injection, schedule: Q01DX Z (oral), vehicle: carboxymethylcellulose (CMC) 103 % of control | dose: 220.0 mg/kg/injection, schedule: Q01DX Z (ip), vehicle: methylcellulose (MC) 98 % of control | dose: 220.0 mg/kg/injection, schedule: Q01DX Z (ip), vehicle: saline 108 % of control | dose: 334.0 mg/kg/injection, schedule: Q01DX Z (ip), vehicle: saline 120 % of control | dose: 400.0 mg/kg/injection, schedule: Q01DX015 (ip), vehicle: saline 96 % of control | dose: 400.0 mg/kg/injection, schedule: Q01DX Z (oral), vehicle: carboxymethylcellulose (CMC) 103 % of control | dose: 800.0 mg/kg/injection, schedule: Q01DX Z (oral), vehicle: carboxymethylcellulose (CMC) 95 % of control | dose: 1600.0 mg/kg/injection, schedule: Q01DX Z (oral), vehicle: carboxymethylcellulose (CMC) 111 % of control
